# Source: patent US8530455B2 (University of Medicine and Dentistry of New Jersey, priority 2009, dated 2013)
# B1: TF: Tissue Factor, the initiator of the extrinsic clotting cascade (protein, UniProt P13726 33-295, looked up)
# Tissue factor: SGTTNTVAAYNLTWKSTNFKTILEWEPKPVNQVYTVQISTKSGDWKSKCFYTTDTECDLTDEIVKDVKQTYLARVFSYPAGNVESTGSAGEPLYENSPEFTPYLETNLGQPTIQSFEQVGTKVNVTVEDERTLVRRNNTFLSLRDVFGKDLIYTLYYWKSSSSGKKTAKTNTNEFLIDVDKGENYCFSVQAVIPSRTVNRKSTDSPVECMGQEKGEFREIFYIIGAVVFVVIILVIILAISLHKCRKAGVGQSWKENSPLNVS
# How the values were obtained:
# citrated whole blood = experiment: Glucose-accelerated clotting time (Diagnostica Stago ST4 and Sonoclot); format: cell-based, human; settings: for Glucose-accelerated clotting time: after 24 hours
# Procedure: Citrated whole blood samples were obtained from the University Hospital's clinical laboratory with prior IRB approval. Samples were treated with different concentrations of glucose (6.0 mM, 9.0 mM, and 12.0 mM) to determine if a dose-response relationship existed between the glucose concentration and clotting time. Clotting times were then recorded using a Diagnostica Stago ST4 Coagulation Analyzer. […] The samples were incubated for 10 minutes prior to the addition of glucose (12.0 mM). After 24 hours, clotting times were recorded using a Diagnostica Stago ST4 and Sonoclot Coagulation Analyzer (FIG. 2). Results and Discussion
# [1] = system: human citrated whole blood (CWB); experiment: Whole blood clotting time, Sonoclot Coagulation Analyzer; format: cell-based
# Procedure: (§1) Human citrated whole blood (CWB) samples were gently inverted several times to ensure homogeneity and stored on ice to prevent protein denaturation. Ten microliters of physiologic saline was added to 490 μl of CWB (control), gently mixed, and incubated at 37° C. for 10 minutes. Coagulation was initiated by transferring 300 μl of blood sample to a cuvette containing 32 μl of 0.1 M CaCl2. After gently mixing the sample and ensuring no air bubble formations in the cuvette, the whole blood clotting times were recorded on an Amelung KC4A Micro Coagulation Analyzer (Sigma Diagnostics, St. Louis, Mo., USA), a device that uses the relative displacement of a magnetic bead due to fibrin formation to determine the clotting time. In addition, the Sonoclot Coagulation Analyzer (Sienco, Wheat Ridge, Colo., USA), a miniviscometer that is sensitive to fibrin polymer formation and fibrinolysis, was also employed to determine the whole blood clotting time. Both clinical instruments are FDA approved and used to evaluate blood coagulation processes at 37° C.
# (§2) Clotting time values obtained within each study were evaluated by repeated measures analysis of variance (ANOVA) followed by Tukey-Kramer multiple comparison tests. All statistical analyses were assessed using two-sided paired Student t tests and significance was defined as p<0.05.
# In the previous experiments, the whole blood clotting times were measured using the Amelung KC4A Micro, an instrument approved by the FDA to measure blood coagulation processes. Another FDA approved instrument used to measure blood coagulation and fibrinolysis is the Sonoclot Coagulation Analyzer.
# [2] = system: human citrated whole blood (CWB); experiment: Whole blood clotting time after recalcification (Amelung KC4A Micro, or instrument not named); format: cell-based
# Procedure: Clotting time of whole blood enables the contribution of both the cellular elements (leukocytes, red blood cells, platelets) and plasma (the liquid sustaining the cellular components) to be evaluated. The citrate anticoagulated sample is brought to 37° (body temperature) and calcium ion is added to initiate the coagulation cascade. Many instruments are available to determine the time between calcium addition and the formation of the blood clot (clotting time). The time for this complex phenomenon to occur can be shorter than normal (hypercoagulable), within the normal range, and longer than normal (hypocoagulable state). Some disease states are characterized by hypercoagulable clotting states and include coronary artery disease, some cancer, diabetes, multiple sclerosis, stroke etc. The hypocoagulable states include hemophilia, and patients receiving anticoagulant therapies.
# as §1, §2
# [3] = no refrigeration required; cited from earlier work
# [4] = system: red blood cells in anticoagulated human blood; experiment: Erythrocyte Sedimentation Rate (ESR) in vitro; format: cell-based; settings: for ESR value: n=13
# Text: When anticoagulated blood is allowed to remain undisturbed in a long thin tube, the erythrocytes (red blood cells) begin to settle. The rate these cells settle may be a biomarker of the immune system status of the donor's blood. Many chronic diseases and those which create increased morbidity and mortality show increases (larger distance of settling) in ESR than age-matched healthy individuals. The ESR can also monitor the effects of therapeutics or procedures on the patient.
# The ESR is the distance red blood cells settle in anticoagulated blood in one hour (mm/hr). These test results are elevated in many diseases that affect the immune system (infections, arthritis, cancer, heart diseases).
# plasma = experiment: GDL dose response on plasma clotting time; format: biochemical; settings: GDL dose response curve in plasma
molecule,measurement,setting,value
"O=C1O[C@H](CO)[C@@H](O)[C@H](O)[C@H]1O [GDL, glucono-delta-lactone]",effect of GDL on clotting time in the presence of excess glucose (FIG. 2),"citrated whole blood; GDL 3 mg/ml and 4 mg/ml, glucose 12.0 mM",prolonging clotting time even in the presence of excess glucose
same,Glucose-accelerated clotting time,citrated whole blood; glucose (12.0 mM) plus GDL 3 mg/ml,243 ± 70 s
same,Glucose-accelerated clotting time,citrated whole blood; glucose (12.0 mM) plus GDL 4 mg/ml,334 ± 107 s
same,Mean Clotting Times,"[1]; 11.8 mg GDL per mL CWB, n=16, control 262.63 ± 49.67",631.75 ± 74.55 s
same,Mean Clotting Times,"[1]; 0.2 Unit LMWH (dalteparin sodium) plus 11.8 mg GDL per mL CWB, n=16",844.94 ± 77.99 s
same,Mean Clotting Times,"[1]; 0.2 Unit UFH plus 11.8 mg GDL per mL CWB, n=16",852.00 ± 80.72 s
same,Mean Clotting Times,"[2]; 2 μg GDL per mL CWB, n=8, control 264.38 ± 24.17",271.13 ± 24.83 s
same,mean clotting time,"[2]; 2.90 μg GDL/mL CWB, n=4, saline 254.08±27.37",246.55±28.32
same,mean clotting time,"[2]; 23.00 μg GDL/mL CWB, n=4",307.90±16.82
same,mean clotting time,"[2]; 184.00 μg GDL/mL CWB, n=4",387.33±52.36
same,mean clotting time,"[2]; 1.48 mg GDL/mL CWB, n=4",444.55±92.01
same,Mean Clotting Times,"[2]; 11.8 mg GDL per mL CWB, n=16, control 252.25 ± 25.05",618.31 ± 71.81 s
same,mean clotting time,"[2]; 11.80 mg GDL/mL CWB, n=4",687.37±51.23
same,Mean Clotting Times,"[2]; 0.2% TF plus 11.8 mg GDL per mL CWB, n=16",418.44 ± 80.46 s
same,Mean Clotting Times,"[2]; 0.2 Unit LMWH (dalteparin sodium) plus 2 μg GDL per mL CWB, n=8",456.15 ± 47.45 s
same,Mean Clotting Times,"[2]; 0.2 Unit UFH plus 2 μg GDL per mL CWB, n=8",572.51 ± 45.94 s
same,Mean Clotting Times,"[2]; 0.3 Unit LMWH (enoxaparin sodium) plus 2.9 μg GDL per mL CWB, n=4",240.73 ± 29.58 s
same,Mean Clotting Times,"[2]; 0.3 Unit LMWH (enoxaparin sodium) plus 10 μg GDL per mL CWB, n=4",294.50 ± 46.16 s
same,Mean Clotting Times,"[2]; 0.3 Unit LMWH (enoxaparin sodium) plus 23 μg GDL per mL CWB, n=4",336.28 ± 51.79 s
same,Mean Clotting Times,"[2]; 0.3 Unit LMWH (enoxaparin sodium) plus 184 μg GDL per mL CWB, n=4",381.23 ± 61.83 s
same,Mean Clotting Times,"[2]; 0.3 Unit LMWH (enoxaparin sodium) plus 1.48 mg GDL per mL CWB, n=4",442.45 ± 63.38 s
same,Mean Clotting Times,"[2]; 0.3 Unit LMWH (enoxaparin sodium) plus 11.8 mg GDL per mL CWB, n=4",542.88 ± 54.17 s
same,Mean Clotting Times,"[2]; 0.3 Unit UFH plus 2.9 μg GDL per mL CWB, n=5",415.10 ± 101.63 s
same,Mean Clotting Times,"[2]; 0.3 Unit UFH plus 10 μg GDL per mL CWB, n=5",498.94 ± 81.24 s
same,Mean Clotting Times,"[2]; 0.3 Unit UFH plus 23 μg GDL per mL CWB, n=5",675.34 ± 129.28 s
same,Mean Clotting Times,"[2]; 0.3 Unit UFH plus 184 μg GDL per mL CWB, n=5",825.96 ± 160.74 s
same,Mean Clotting Times,"[2]; 0.3 Unit UFH plus 1.48 mg GDL per mL CWB, n=5",926.44 ± 192.03 s
same,Mean Clotting Times,"[2]; 0.3 Unit UFH plus 11.8 mg GDL per mL CWB, n=5",1197.89 ± 114.32 s
same,mean clotting time,"[2]; CWB + GDL, n=9 (GDL 3 mg/ml)",270 s
same,mean clotting time,"[2]; CWB + TF + GDL, n=9 (GDL 3 mg/ml)",134 s
same,change of whole blood clotting time over GDL concentration range,[2]; GDL 0.016 mM-66.24 mM,increased about three fold
same,clotting time versus control,[2]; GDL 3 mg/ml incubated in blood with bacterial endotoxin,significantly (p≦0.05) increase the clotting time
same,mean clotting time,"[2]; GDL 4 mg/ml, after four days in the refrigerator (4°), control 177±17",342 ± 32 s
same,mean clotting time,"[2]; GDL 4 mg/ml, day 1, n=10, control 250±16",432 ± 16 s
same,clotting time,"[2]; Study III: 60 ng/ml histamine, 3 mg/ml GDL, n=8",305 ± 30 s
same,clotting time,"[2]; Study III: 60 ng/ml histamine, 4 mg/ml GDL, n=8",325 ± 53 s
same,clotting time,"[2]; Study IV: 1 μg/ml histamine added first, 1 mg/ml GDL, n=8",297 ± 113 s
same,clotting time,"[2]; Study IV: 1 μg/ml histamine added first, 2 mg/ml GDL, n=8",304 ± 121 s
same,clotting time,[2]; blood containing protease 35 μg/ml plus GDL 4 mg/ml,154 ± 55 s
same,clotting time,"[2]; blood exposed to tissue factor plus GDL 3 mg/ml, TF alone 101",134 s
same,anticoagulant effect,"[2]; concentrations greater than 184 μg GDL per mL of blood, n=4, p<0.05",potent anticoagulant
same,clotting time,"[2]; trypsin-treated blood plus GDL 6 mg/ml, n=4",83 ± 19 s
same,stability at room temperature,[3],not susceptible to degradation at room temperatures
same,ESR value,"[4]; 0.1 mg/ml GDL, control 20±13",18±14 mm/hr
same,ESR value,[4]; 3.0 mg/ml GDL,16±12 mm/hr
same,ESR value,[4]; 6.0 mg/ml GDL,15±12 mm/hr
same,ESR,[4]; GDL 1 mg/ml alone,9.6 mm
same,Methylcellulose (MC)-accelerated ESR,"[4]; MC 0.1% plus GDL 1 mg/ml, N=8, p<0.05",34.6 mm
same,ESR,"[4]; MC + GDL (MC 0.1 mg/ml, GDL 1 mg/ml)",30.1 mm
same,anticoagulant effect in plasma,plasma,a similar anticoagulant effect was observed
"NCCc1c[nH]cn1 [histamine, reference compound]",clotting time,"[2]; Study III: 60 ng/ml histamine, 0 mg/ml GDL, n=8, control 264±38",220 ± 39 s
same,clotting time,"[2]; Study IV: 1 μg/ml histamine, 0 mg/ml GDL, n=8, control 306±108",253 ± 136 s
same,clotting time,"[2]; histamine 20 ng/ml, n=8, control 264±80",257 ± 105 s
same,clotting time,"[2]; histamine 40 ng/ml, n=8",240 ± 42 s
same,clotting time,"[2]; histamine 60 ng/ml, n=8",235 ± 73 s
same,clotting time,"[2]; histamine 20 μg/ml, 10 minutes at 37°, n=9, control 300±72",252 ± 61 s
same,clotting time,"[2]; histamine 40 μg/ml, 10 minutes at 37°, n=9",230 ± 49 s
same,clotting time,"[2]; histamine 60 μg/ml, 10 minutes at 37°, n=9",205 ± 71 s
"Protamine sulfate [PS, reference compound]",Mean Clotting Times,"[2]; 2 μg PS per mL CWB, n=8",294.26 ± 22.92 s
same,Mean Clotting Times,"[2]; 0.2 Unit LMWH (dalteparin sodium) plus 2 μg PS per mL CWB, n=8",433.96 ± 56.96 s
same,Mean Clotting Times,"[2]; 0.2 Unit UFH plus 2 μg PS per mL CWB, n=8",464.71 ± 42.83 s
trypsin [reference compound],clotting time,"[2]; trypsin-treated blood, control 356±47",49 ± 14 s
"unfractionated heparin sodium [UFH, reference compound]",Mean Clotting Times,"[1]; 0.2 Unit UFH per mL CWB, n=16",677.25 ± 55.33 s
same,Mean Clotting Times,"[2]; 0.2 Unit UFH per mL CWB, n=8",648.54 ± 55.31 s
same,Mean Clotting Times,"[2]; 0.3 Unit UFH per mL CWB, n=5, control 246.56 ± 36.06",507.52 ± 85.26 s
B1,Mean Clotting Times,"[2]; 0.2% TF, n=16",100.13 ± 23.10 s
